Type in all cases: cell-based
Data set [1] has as its target T1, tyrosinase (DOPA oxidase) (Homo sapiens, UniProt P14679).
T1 construct: from tissue; host or cells: separated human epidermis from a frozen abdominoplasty (melanocytes in situ)
T1 sequence (P14679 19-529): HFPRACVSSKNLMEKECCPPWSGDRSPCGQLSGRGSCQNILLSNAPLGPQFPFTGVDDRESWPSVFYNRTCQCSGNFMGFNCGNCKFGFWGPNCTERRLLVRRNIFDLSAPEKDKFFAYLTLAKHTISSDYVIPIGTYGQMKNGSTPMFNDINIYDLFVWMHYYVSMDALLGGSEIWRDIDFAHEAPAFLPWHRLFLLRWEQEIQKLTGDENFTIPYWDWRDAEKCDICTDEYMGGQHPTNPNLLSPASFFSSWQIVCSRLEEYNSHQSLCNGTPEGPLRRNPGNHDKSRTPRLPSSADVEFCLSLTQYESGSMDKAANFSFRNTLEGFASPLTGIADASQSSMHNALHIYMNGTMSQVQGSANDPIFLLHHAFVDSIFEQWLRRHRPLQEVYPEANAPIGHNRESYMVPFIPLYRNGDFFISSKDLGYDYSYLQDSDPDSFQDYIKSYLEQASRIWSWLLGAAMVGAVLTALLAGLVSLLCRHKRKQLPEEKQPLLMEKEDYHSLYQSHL
The data set is described as follows: Screening of anti-tyrosinase activity: DOPA oxidase reaction on separated epidermis, count of DOPA positive melanocytes per mm2. The conditions noted are these: for Variation/control: DOPA positive melanocyte count per mm2 vs DOPA control, product at 30 μg/mL in DMSO; for effectiveness for limiting tyrosinase activity compared with reference compounds: vs ref 1. The protocol:
The products are tested in solution at 30 μg/mL in DMSO. Epidermis samples originating from a frozen abdominoplasty (person) were separated by incubation in 2N NaBr for 1.0 h at 37° C. They were then fixed in a buffered formolized fixing agent, rinsed and put in contact with the volume/volume mixture: solutions of L-DOPA/test formulation. After incubation, they were rinsed and mounted between slide and cover slip with mounting liquid of the Aquatex type. Observation was by optical microscopy with ×10 objective. Images were obtained with a tri CCD Sony DXC […] camera and stored using the Leica IM1000 data archiving software. For each batch, several microscope fields were analysed using the LEICA QWin image analysis software. For each field, the DOPA positive melanocytes were counted and the area of the zone was measured to determine the melanocyte count per mm^2.

Data set [2] deals with Normal human epidermal keratinocytes (NHEK). In words: Proliferation and/or migration of keratinocytes, artificial wound coverage. The conditions noted are these: percentage coverage at 48 h. As to the method: The phases of migration and proliferation of cells are major phases of healing that occur after the inflammation phase and are necessary for recolonization of the wound. An increase in the migration and proliferation of cells allows an improvement in healing. • Biological model: Normal human epidermal keratinocytes (NHEK) • Culture conditions: 37° C., 5% CO2 • Culture medium: Keratinocyte-SFM-PE-EGF (keratinocyte culture medium—serum free medium (SFM) without pituitary extract (PE) and without Epidermal Growth Factor (EGF) • Conditions: • Control (n=6) • Reference: EGF (Epidermal Growth Factor) at 10 ng/ml (n=2) • compounds tested (n=2) • Incubation: 72 hours • Assay: Normal human keratinocytes were seeded on 96-well plates suitable for the migration studies. In these plates, the substrates were pretreated with a solution of collagen and a mask was placed at the centre of each well, preventing adhesion of the cells in this zone and thus forming an artificial wound. After labelling the cells with calcein, the masks were removed and then the cells were treated with the compounds or the reference. The migration of the cells was monitored microscopically for 72 hours, taking photographs at 0 h, 24 h, 48 h and 72 h. The results are expressed in percentage coverage and compared with the untreated control.

Data set [3] deals with B16 melanocytes. In words: Screening of anti-melanogenesis activity: melanin assay in B16 melanocytes stimulated with NDP-MSH. The conditions noted are these: 72 h; for inhibition at 30 µM / inhibition at 100 µM: Melanocyte, read-out: Normalized data inhibition (%). As to the method:
This was carried out for compounds in solution in DMSO. The synthesis of melanin was measured in a model of B16 melanocytes stimulated with a stable derivative of α-MSH (natural hormone that stimulates melanogenesis: Melanocyte Stimulating Hormone): NDP-MSH ([Nle^4, DPhe7]-α-MSH).
(§1) Melanocytes were seeded on a 96-well plate and cultured for 24 h (37° C., 5% CO2, DMEM 1 g/L glucose without phenol red supplemented with glucose 3 g/L, L-glutamine 2 mM, penicillin 50 U/mL, streptomycin 50 μg/mL, fetal calf serum (FCS) 10%). […] Each experimental condition was carried out with n=3, apart from the controls carried out with n=6. The cells were then incubated for 72 h. Wells without cells received in parallel the same quantities of medium, supplemented or not with NDP-MSH and with or without the test compounds or the reference in order to quantify the background noise associated with the presence of the compounds.
At the end of 72 hours of incubation, the total melanin (intra- and extracellular) was quantified by measuring the absorbance of each sample at 405 nm (direct reading of the culture plates) against a standard range of melanin (melanin concentrations tested from 0.78 to 100 μg/mL). The background noise, measured in the wells without cells, was subtracted from the values measured so that only the effect connected with the production of melanin is taken into account, without including any interference connected with the presence of the compounds. The results were expressed in percentage of melanin relative to the control as well as in percentage inhibition.

Data set [4] relates to B16 melanocytes. The data set is described as follows: Viability of the cells, test of reduction of MTT. The conditions noted are these: 72 h. As to the method: as §1
At the end of the treatment, the cells were incubated in the presence of MTT (3-(4,5-dimethylthiazol-2-yl)-2,5-diphenyl tetrazolium bromide), the conversion of which to blue crystals of formazan is proportional to the activity of succinate dehydrogenase (mitochondrial enzyme). After disruption of the cells, the formazan was dissolved in DMSO medium and the optical density (OD), representative of the number of live cells and of their metabolic reactivity, was measured with a microplate reader at 540 nm (VERSAmax, Molecular Devices).

Each structure is given as a SMILES string. Values joined by “and” are separate entries in the source; they are usually repeats but may differ in a detail not shown here. Identical values can stand only once.

As a reminder, the inhibition is the change of the read-out against control, counted positive when it falls.

For `CCCCCCCCCCC/C=C/C(=O)N[C@H]1CCC[C@H]1NC(=O)/C=C/CCCCCCCCCCC` [c79], the Variation/control in data set [1] is −45. Further, the “% control 48 h” value in data set [2] (1 μM) is reported as 141 % control.
Consider `O=C(O)/C=C/CCCCCCCCCCCO` [Ref 3, (E)-14-Hydroxy-tetradec-2-enoic acid, reference compound], for which, in data set [1], the Variation/control is −15.
In the case of `O=C(N[C@H]1CCC[C@H]1NC(=O)/C(F)=C/CCCCCCCO)/C(F)=C/CCCCCCCO` [c45], the “% control 48 h” value in data set [2] (3 μM) turned out to be 145 % control.
In data set [1], `O=C(O)/C=C/CCCCCCCCCCCCO` [Ref 5, (E)-15-Hydroxy-pentadec-2-enoic acid, reference compound] displayed a Variation/control of −29.
As for `O=C(N[C@H]1C[C@H]1NC(=O)C(F)=CCCCCCCCO)C(F)=CCCCCCCCO` [c36], the “% control 48 h” value in data set [2] (3 μM) stood at 154 % control.
On to `O=C(/C=C/CCCCCCCCCCCCCCO)N[C@H]1C[C@@H]1NC(=O)/C=C/CCCCCCCCCCCCCCO` (relative stereo) [c93], for which, in data set [1], the Variation/control is on record as −48.
Same read-out and setting: in the case of `CCCCCCCCC=CCCCCCCCC(=O)NC1CCCC1NC(=O)CCCCCCCC=CCCCCCCCC` (stereo not shown) [c127] it was −45; in that of `O=C(O)/C=C/CCCCCCCCCO` [Ref 6, (E)-12-Hydroxy-dodec-2-enoic acid, reference compound], −24.
Take `O=C(NC1CCCC1NC(=O)C(F)=CCCCCCCCCCCCCCCO)C(F)=CCCCCCCCCCCCCCCO` (stereo not shown) [c53]: the “% control 48 h” value in data set [2] (3 μM) turned out to be 137 % control.
Take `O=C(NC1CCC(NC(=O)C(F)=CCCCCCCCCCCCO)C1)C(F)=CCCCCCCCCCCCO` (stereo not shown) [c60]: the “Normalized data inhibition (%)” value was 83% in data set [3] (30 μM) and 97% in data set [3] (100 μM). Further, the “Viability (MTT) % stimulated control” value worked out at 105 % stimulated control in data set [4] (30 μM) and 101 % stimulated control in data set [4] (100 μM).
On the same counts, the results for `O=C(O)C(F)=CCCCCCCCCCCCCCCCO` [Ref 2, 18-Hydroxy-octadec-2-en-2-fluoro-oic acid, reference compound] are 0%, 79%, 83 % stimulated control and 72 % stimulated control.
On the same counts, the results for `O=C(N[C@H]1CCC[C@H]1NC(=O)/C(F)=C\CCCCCCCCO)/C(F)=C\CCCCCCCCO` [c49] are 83%, 118%, 83 % stimulated control and 0 % stimulated control.
Take `O=C(/C=C/CCCCCCCCCCCO)N[C@H]1CCC[C@H]1NC(=O)/C=C/CCCCCCCCCCCO` [c17]: the “% control 48 h” value in data set [2] (1 μM) is 141 % control.
With `O=C(NC1CCC(NC(=O)C(F)=CCCCCCCCCOC2CCCCO2)C1)C(F)=CCCCCCCCCOC1CCCCO1` (mixture of isomers) [c74], the “Normalized data inhibition (%)” value in data set [3] (30 μM) turned out to be 110%; in data set [3] (100 μM), 111%. Also, the “Viability (MTT) % stimulated control” value was 78 % stimulated control in data set [4] (30 μM) and 81 % stimulated control in data set [4] (100 μM).
The like results for `O=C(NC1CC1NC(=O)C(F)=CCCCCCCCCO)C(F)=CCCCCCCCCO` (mixture of isomers) [c37] were, in that order, 0%, 92%, 77 % stimulated control and 83 % stimulated control.
In turn, `O=C(NC1CCC(NC(=O)C(F)=CCCCCCCCCO)C1)C(F)=CCCCCCCCCO` (mixture of isomers) [c59] showed a Variation/control in data set [1] of −56. In data set [1], the “effectiveness for limiting tyrosinase activity compared with reference compounds” value is listed as “more effective than the reference compounds”. Further, the “Normalized data inhibition (%)” value in data set [3] (1 μM) worked out at 0%; in data set [3] (3 μM), 9%; in data set [3] (10 μM) it was 38%; in data set [3] (30 μM) it was 71%; in data set [3] (100 μM) it was 118%. Also, the “Viability (MTT) % stimulated control” value was 108 % stimulated control in data set [4] (1 μM); 90 % stimulated control in data set [4] (3 μM); 88 % stimulated control in data set [4] (10 μM); 82 % stimulated control in data set [4] (30 μM); 2 % stimulated control in data set [4] (100 μM).
In the case of `O=C(O)/C=C/CCCCCCCCCCCCCCCO` [Ref 1, (E)-18-Hydroxy-octadec-2-enoic acid, reference compound], in data set [1], the Variation/control was −16. The inhibition at 30 µM in data set [3] (30 μM) was found to be 0%. Further, the inhibition at 100 µM in data set [3] (100 μM) was found to be 115%. Moreover, the “Viability (MTT) % stimulated control” value in data set [4] (mouse, 30 μM) worked out at 79 % stimulated control; in data set [4] (mouse, 100 μM) it was 63 % stimulated control.
Consider `O=C(NC1CCC(NC(=O)C(F)=CCCCCCO)C1)C(F)=CCCCCCO` (stereo not shown) [c116], for which the “Normalized data inhibition (%)” value in data set [3] (30 μM) is 6%; in data set [3] (100 μM), 87%. Moreover, the “Viability (MTT) % stimulated control” value is reported as 88 % stimulated control in data set [4] (30 μM) and 91 % stimulated control in data set [4] (100 μM).
As for `O=C(N[C@H]1C[C@H]1NC(=O)/C(F)=C/CCCCCCCCCCCO)/C(F)=C/CCCCCCCCCCCO` [c40], the Variation/control in data set [1] is −61. The “effectiveness for limiting tyrosinase activity compared with reference compounds” value in data set [1] was “more effective than the reference compounds”. Besides, the “Normalized data inhibition (%)” value in data set [3] (10 μM) is given as −1%. The “Viability (MTT) % stimulated control” value in data set [4] (10 μM) was 89 % stimulated control; in data set [4] (30 μM), 85 % stimulated control and 94 % stimulated control; in data set [4] (100 μM) it was 86 % stimulated control and 94 % stimulated control. Moreover, the “% control 48 h” value in data set [2] (30 μM) came to 144 % control.
Consider `O=C(O)C(F)=CCCCCCCCCCCCO` [Ref 4, 2-Fluoro-14-hydroxy-tetradec-2-enoic acid, reference compound], for which the Variation/control in data set [1] was −36. Further, the inhibition at 30 µM in data set [3] (30 μM) turned out to be 0%. For the same compound, the inhibition at 100 µM in data set [3] (100 μM) is 0%. In addition, the “Viability (MTT) % stimulated control” value worked out at 114 % stimulated control in data set [4] (30 μM) and 95 % stimulated control in data set [4] (100 μM).

(Values after US20140249105A1, “NOVEL CERAMIDE ANALOGUES, PROCESSES FOR PREPARING SAME AND USES THEREOF” (Diverchim, priority 2011, published 2014).)
